{
  "source": "patent US20230292743A1",
  "about": "“Method for increasing the lifespan and motility of animal sperm using an inhibitor of Slo3 potassium channel” (IMV TECHNOLOGIES, priority 2017, published 2023)",
  "tested_on": "mouse sperm",
  "assay": "Mouse sperm motility by CASA analysis (VCL) after 12 h capacitation",
  "format": "cell-based",
  "conditions": "0.2 μM clofilium, 12 h capacitation in M16-BSA medium at 37° C., vs control",
  "protocol": "3. The viability of mouse sperm was determined by the measurement of the sperm motility. The motility analysis was performed using Computer Assisted Semen Analysis (CASA analysis). The CASA analysis was always performed in the examples using a CEROS™, Hamilton Thorne Bioscience, USA. VCL was thus measured. As known to the skilled person, VCL (for Curvilinear Velocity) is the average velocity of the sperm head through its real path. For this analysis, samples were diluted at 0.1 10^6/mL. The diluted sample was incubated for 12 hours at 37° C. in a capacitation medium of M16-BSA medium, with or without 0.2 μM clofilium. For the CASA measurement, 10 μL of the sample were placed on a 2X-CEL Slides, […], Leja Products B.V.,Netherlands, placed on the heating stage (37° C.) of the CEROS ™. A total of 10 automatically selected fields were analyzed.",
  "data": [
    {"compound": "CCCCCCC[N+](CC)(CC)CCCCc1ccc(Cl)cc1", "note": "[clofilium]", "values": [
      {"measurement": "motility of sperm (in terms of VCL)", "value": "higher velocity than the “control”"}
    ]}
  ]
}
